No end group written: not given here.
Tests used:
[1] = Phase diagram in citrate / tris / ammonium bicarbonate buffers; format: physicochemical; details: 20 mM citrate (pH 3-7)/tris (pH 7-9)/ammonium bicarbonate (pH 9-12), 0.2 M NaCl, room temperature
Description: Since this analysis is highly sensitive to pH fluctuation, we also created phase diagrams for all peptides using three different buffers that are optimized for specific pH range: citrate buffer for pH 3–7, tris buffer for pH 7–9 and ammonium bicarbonate for pH 9–12 (Supplementary Fig. 1). While the trend in these phase diagrams is similar to that obtained only in tris buffer, the critical pH for LLPS is lower in citrate buffer for all LLPS-promoting peptides (Supplementary Fig. 1).
150 μl of 5 mM, 8 mM, 10 mM, 15 mM, 20 mM, and 30 mM peptide solutions were prepared in either 20 mM tris buffer or 20 mM of the following three buffers: citrate buffer for pH 3–7 tris buffer for pH 7–9 and ammonium bicarbonate for pH 9–12, with 0.2 M NaCl. The pH was increased gradually until a turbidity appeared and measured as described below. All measurements were performed at room temperature. Data points represent averages of three independent measurements. Turbidity of 35 μl samples was estimated in triplicates from sample absorbance at λ = 500 nm as described below.
Supplementary Figure 1. Phase diagram of the peptides as a function of peptide concentration and pH, in different buffers: citrate buffer for pH 3-7, tris buffer for pH 7-9, and ammonium bicarbonate buffer for pH 9-12. 0.2 M NaCl was added to all samples, measurements were obtained at room […]
temperature. […] Values represent average pH of n=3 independent measurements, data are presented as mean values +/- SD. […]

[2] = Phase diagram in tris buffer: pH at which turbidity (LLPS) appears vs peptide concentration; format: physicochemical; details: 0.2 M NaCl, room temperature; for pH at which turbidity (LLPS) appears: 20 mM tris, turbidity A500
Source text: We sought to design a library of LLPS-promoting peptide building blocks which form synthetic biomolecular condensates with tunable chemical composition and physical properties. We hypothesized that minimalistic variants of protein low complexity domains (LCDs) will self-assemble into liquid droplets through LLPS. Specifically, we envisioned that in order to keep the sequence length relatively short, the peptide composition should include high content of aromatic and basic amino acids that can interact through π–π or cation–π interactions. To test this hypothesis, we designed a primary sequence that contains various LLPS-promoting motifs. Inspired by LCDs of ribonucleoproteins (RNPs) and IDPs that are rich in arginine-glycine (RG) dyad or RGG triad repeats, we incorporated three repeats of an RG dyad (Fig. 1a), where glycine (Gly) provides flexibility and arginine (Arg) promotes electrostatic interactions with the terminal carboxylic group, cation- π or π interactions with aromatic amino acids (Fig. 1a). While both lysine (Lys) and Arg have basic side chain groups, the guanidine group of Arg delocalizes the charge due to the π bonded system and thus can promote more versatile binding modes compared to Lys, through cation–π and π–π interactions. Thus, considering that the Arg side chain can interact with side chains of aromatic amino acids, we incorporated tryptophan (Trp) and tyrosine (Tyr) into the peptide sequence at a 1:1 stoichiometry with Arg, with aromatic amino acids positioned at both ends of the sequence to enhance π–π stacking interactions. Finally, we considered the elastin-like polypeptide (ELP) repeating motif VPGXG. This pentapeptide sequence is a common LLPS-promoting motif used in engineered ordered/disordered polypeptides, where X can be any amino acid except proline (Pro), and a hydrophobic amino acid at this position promotes coacervation[39],[40]. […] Building on these previous findings, we incorporated the sequence WPGVG, thus obtaining the 14-mer peptide WGRGRGRGWPGVGY termed WGR-1 (Figs. 1a, 2a). WGR-1 forms droplets by self-coacervation at neutral pH in the presence of 0.2 M NaCl, which reduces the electrostatic repulsion of the basic peptide (Fig. 1b). We created a phase diagram of WGR-1 as a function of pH and peptide concentration in tris buffer by gradually increasing the pH and monitoring LLPS, as indicated by appearance of sample turbidity (Fig. 2b), where all experiments performed at room temperature. As expected, increasing peptide concentration decreased the pH in which visible turbidity and droplets are observed, where the critical LLPS concentration is 8 mM. To confirm that the turbidity is a result of LLPS and droplet formation rather than aggregation, we used bright field laser scanning confocal microscopy (Fig. 2c).
Fig. 2 Peptide sequence controls LLPS propensity and droplet formation. a Table of the designed peptide sequences. b Phase diagram of the peptides as a function of peptide concentration and pH, in tris buffer with 0.2 M NaCl, at room temperature. […] Source data are provided as a Source Data file. c Confocal microscopy bright field images of peptide liquid droplets formed at a concentration of 20 mM in Tris buffer at pH 8 with 0.2 M NaCl. Scale bars = 20 μm. Inset: macroscopic images of the peptide solutions. ‘Source data are provided as a Source Data file. TEXT PRINTED IN THE PICTURE: (b) WGR-1: LLPS | (b) WGR-2: No LLPS | (b) WGR-3: LLPS | (b) WGR-4: LLPS | (b) WGR-5: LLPS | (b) WGK: No LLPS DOUBTS OF THE COPYIST ABOUT THIS PICTURE: Panel b: "LLPS" / "No LLPS" are class labels printed inside the phase diagrams, with no numbers. In the diagrams with a curve, "LLPS" marks a region of the plot. / Panel c: the handwritten labels on the vials in the insets cannot be read with certainty and were left out. […]

Sequence: WGRGRGRGWPGVGY [WGR-1]
- pH at which turbidity (LLPS) appears ([1]; 8 mM peptide, replicate 1): 8.43
- pH at which turbidity (LLPS) appears ([1]; 8 mM peptide, replicate 2): 8.47
- pH at which turbidity (LLPS) appears ([1]; 8 mM peptide, replicate 3): 8.55
- pH at which turbidity (LLPS) appears ([1]; 10 mM peptide, mean of n=3): 6.79
- pH at which turbidity (LLPS) appears ([1]; 10 mM peptide, replicate 1): 6.32
- pH at which turbidity (LLPS) appears ([1]; 10 mM peptide, replicate 2): 7.04
- pH at which turbidity (LLPS) appears ([1]; 10 mM peptide, replicate 3): 7.01
- pH at which turbidity (LLPS) appears ([1]; 15 mM peptide, mean of n=3): 6.34
- pH at which turbidity (LLPS) appears ([1]; 15 mM peptide, replicate 1): 6.41
- pH at which turbidity (LLPS) appears ([1]; 15 mM peptide, replicate 2): 6.41
- pH at which turbidity (LLPS) appears ([1]; 15 mM peptide, replicate 3): 6.2
- pH at which turbidity (LLPS) appears ([1]; 20 mM peptide, mean of n=3): 4.96
- pH at which turbidity (LLPS) appears ([1]; 20 mM peptide, replicate 1): 5.1
- pH at which turbidity (LLPS) appears ([1]; 20 mM peptide, replicate 2): 4.89
- pH at which turbidity (LLPS) appears ([1]; 20 mM peptide, replicate 3): 4.89
- pH at which turbidity (LLPS) appears ([1]; 30 mM peptide, replicate 1): 4.78
- pH at which turbidity (LLPS) appears ([1]; 30 mM peptide, replicate 2): 4.27
- pH at which turbidity (LLPS) appears ([1]; 30 mM peptide, replicate 3): 4.52
- differential NaCl-induced change (20 vs 5 mM), average: 3.5 Hz
- pH at which turbidity (LLPS) appears ([2]; 8 mM peptide, mean of n=3): 8.483
- pH at which turbidity (LLPS) appears ([2]; 8 mM peptide, replicate 1): 8.43
- pH at which turbidity (LLPS) appears ([2]; 8 mM peptide, replicate 2): 8.47
- pH at which turbidity (LLPS) appears ([2]; 8 mM peptide, replicate 3): 8.55
- pH at which turbidity (LLPS) appears ([2]; 10 mM peptide, mean of n=3): 7.88
- pH at which turbidity (LLPS) appears ([2]; 10 mM peptide, replicate 1): 7.84
- pH at which turbidity (LLPS) appears ([2]; 10 mM peptide, replicate 2): 7.86
- pH at which turbidity (LLPS) appears ([2]; 10 mM peptide, replicate 3): 7.94
- pH at which turbidity (LLPS) appears ([2]; 15 mM peptide, mean of n=3): 7.483
- pH at which turbidity (LLPS) appears ([2]; 15 mM peptide, replicate 1): 7.45
- pH at which turbidity (LLPS) appears ([2]; 15 mM peptide, replicate 2): 7.51
- pH at which turbidity (LLPS) appears ([2]; 15 mM peptide, replicate 3): 7.49
- pH at which turbidity (LLPS) appears ([2]; 20 mM peptide, mean of n=3): 7.12
- pH at which turbidity (LLPS) appears ([2]; 20 mM peptide, replicate 1): 7.13
- pH at which turbidity (LLPS) appears ([2]; 20 mM peptide, replicate 2): 7.08
- pH at which turbidity (LLPS) appears ([2]; 20 mM peptide, replicate 3): 7.15
- pH at which turbidity (LLPS) appears ([2]; 30 mM peptide, mean of n=3): 6.85
- pH at which turbidity (LLPS) appears ([2]; 30 mM peptide, replicate 1): 6.82
- pH at which turbidity (LLPS) appears ([2]; 30 mM peptide, replicate 3): 6.88
- critical LLPS concentration ([2]; tris buffer, lowest of 5-30 mM at which turbidity/droplets form): 8 mM

Source: paper PMC9879991, “Biomolecular condensates formed by designer minimalistic peptides” (Nature Communications, 2023)
